Source: BigSolDB 2.1

solubility (mole fraction) (in 1,4-dioxane, 298.15 K)	solubility (mole fraction) (in 1,4-dioxane, 303.15 K)	solubility (mole fraction) (in 1,4-dioxane, 308.15 K)	solubility (mole fraction) (in 1,4-dioxane, 313.15 K)	solubility (mole fraction) (in 1,4-dioxane, 318.15 K)	solubility (mole fraction) (in DMF, 298.15 K)	solubility (mole fraction) (in DMF, 303.15 K)	solubility (mole fraction) (in DMF, 308.15 K)	solubility (mole fraction) (in DMF, 313.15 K)	solubility (mole fraction) (in DMF, 318.15 K)	SMILES
0.00705	0.00707	0.0071	0.00711	0.00714	0.0094	0.00945	0.0095	0.0095	0.00959	O=C(/C=C/c1ccc(-c2cccc([N+](=O)[O-])c2)o1)CO
0.00617	0.00623	0.00622	0.00624	0.00628	0.00696	0.007	0.0071	0.0072	0.00721	O=C(/C=C/c1ccc(-c2cccc([N+](=O)[O-])c2)o1)c1ccc2ccc(=O)oc2c1
0.00229	0.00232	0.00239	0.00241	0.00245	0.00237	0.0024	0.00244	0.00245	0.00248	O=C(/C=C/c1ccc(-c2cccc([N+](=O)[O-])c2)o1)c1ccc([N+](=O)[O-])cc1

Further lines, the compound ahead of its results:

SMILES	solubility (mole fraction) (in 1,4-dioxane, 298.15 K)	solubility (mole fraction) (in 1,4-dioxane, 303.15 K)	solubility (mole fraction) (in 1,4-dioxane, 308.15 K)	solubility (mole fraction) (in 1,4-dioxane, 313.15 K)	solubility (mole fraction) (in 1,4-dioxane, 318.15 K)	solubility (mole fraction) (in DMF, 298.15 K)	solubility (mole fraction) (in DMF, 303.15 K)	solubility (mole fraction) (in DMF, 308.15 K)	solubility (mole fraction) (in DMF, 313.15 K)	solubility (mole fraction) (in DMF, 318.15 K)
O=C(/C=C/c1ccc(-c2cccc([N+](=O)[O-])c2)o1)c1ccc(O)cc1	0.00573	0.0058	0.00581	0.00591	0.00592	0.00665	0.0067	0.00675	0.0068	0.00692
O=C(/C=C/c1ccc(-c2cccc([N+](=O)[O-])c2)o1)c1ccc(Br)cc1	0.00489	0.00491	0.00495	0.00501	0.00501	0.00705	0.0071	0.00714	0.00722	0.00726
COc1ccc(C(=O)/C=C/c2ccc(-c3cccc([N+](=O)[O-])c3)o2)cc1	0.00732	0.00733	0.00737	0.00742	0.00744	0.0112	0.0112	0.0113	0.0113	0.0114
Nc1ccc(C(=O)/C=C/c2ccc(-c3cccc([N+](=O)[O-])c3)o2)cc1	0.00245	0.00248	0.0025	0.00252	0.00255	0.00264	0.00264	0.00264	0.00264	0.00264
O=C(/C=C/c1ccc(-c2cccc([N+](=O)[O-])c2)o1)c1ccc(Cl)cc1	0.00271	0.00272	0.00277	0.00282	0.00284	0.0045	0.0046	0.00468	0.0047	0.0048
O=C(/C=C/c1ccc(-c2cccc([N+](=O)[O-])c2)o1)c1cccc([N+](=O)[O-])c1	0.00596	0.00601	0.00602	0.00605	0.00608	0.00604	0.0061	0.00614	0.0062	0.0062
O=C(/C=C/c1ccc(-c2cccc([N+](=O)[O-])c2)o1)c1ccccc1	0.00553	0.0056	0.00565	0.00571	0.00573	0.00983	0.0099	0.00998	0.0101	0.0101
